# Counter-ions that a name gives are not always drawn.
# How the values were obtained:
# Format in all cases: physicochemical
# [1] = Dynamic vapor adsorption/desorption analysis; details: for change of crystal form with the change of humidity / weight change according to the change of external humidity: 5˜95% RH; for weight change according to the change of external humidity: 25° C.
# Method: The dynamic vapor adsorption/desorption data were collected on VTI-SA Vapor Sorption Analyzer. While maintaining 25° C., the vapor adsorption and desorption were repeated three times at intervals of 5% RH in the range of relative humidity (RH) 5˜95%. The samples were not dried prior to the analysis. The equilibrium standard used for analysis was that the weight change within 2 minutes is less than 0.01%.
# [2] = Thermal stability of the crystal form I and II, XRD analysis for change of crystal form
# Method: About 20 mg of the sample was charged in the sample holder and mounted on Powder X-ray diffractometer to obtain the diffraction pattern in the range of 3˜40°/2θ. The diffraction patterns as obtained are attached to the present specification as FIGS. 1, 5 and 10, respectively. Specific conditions for analysis are as follows.
# (§1) After 2 weeks, 4 weeks and 8 weeks, each sample was removed from Duma bottle and analyzed by XRD for identifying any change of the crystal form and HPLC for identifying the stability. For HPLC analysis the sample was dissolved in a mixture of acetonitrile/water/trifluoroacetic acid=30/70/0.1 (v/v/v) and then subjected to the analysis.
# [3] = Determination of density (bulk-density, tap-density, Carr index); details: for Bulk-density: 50 ml measuring cylinder; for Tap-density: ERWEKA densitometer, impulses 250 times
# Method: Here, the samples were slowly introduced so that they are not closely contacted with each other. After reading a scale on the measuring cylinder, the weight thereof was measured to calculate the bulk-density. After measuring the bulk-density, the measuring cylinder containing the sample was put on ERWEKA densitometer and then subjected to impulses 250 times to measure the tapdensity (Table 5). […] The Can index was calculated from the bulk-density and the tap-density. […] Since it is generally understood that the lower the Carr index, the better the flowability, it could be identified by comparing the Carr indexes that the crystal form I can be easily handled in processing procedures including tabletting as compared to the crystal form II.
# [4] = Thermal stability of the crystal form I and II, HPLC analysis
# Method: as §1, with “analysis. The conditions for HPLC analysis are as follows:” for “analysis.”
# Column: Atlantis dC18 (4.6 mm I.D×250 mm L, Particle Size 5, μm, Waters)
# Column Temperature: 10° C.
# Mobile phase A: MeCN/TFA=100/0.1 (v/v)
# Mobile phase B: H2O/TFA=100/0.1 (v/v)
# Total analysis time: 55 min.
# [5] = Powder X-ray diffraction test and weight change of the crystal form III during moisture adsorption at room temperature under atmosphere
# Method: The crystal form III was placed on a XRD holder and subjected to XRD test over the time (after 30 minutes, 1 hour and 5 hours) while allowing the moisture adsorption at room temperature under atmosphere (see FIG. 15). In addition, the weight change at room temperature under atmosphere was recorded by times to obtain a graph (see FIG. 14).
change of crystal form with the change of humidity [1],weight change according to the change of external humidity [1] [%],"weight increase at 75% RH ([1]; moisture adsorption, 75% RH) [%]",time to conversion into the crystal form I in the accelerating stability test ([2]; 40° C./75% RH) [weeks],"change of the crystal form by XRD analysis ([2]; 40° C./75% RH, at 8 week)",Bulk-density [3] [g/mL],Tap-density [3] [g/mL],"stability (HPLC) ([4]; 40° C./75% RH, 0 week) [%]","stability (HPLC) ([4]; 40° C./75% RH, 2 weeks) [%]","stability (HPLC) ([4]; 40° C./75% RH, 4 weeks) [%]","stability (HPLC) ([4]; 40° C./75% RH, 8 weeks) [%]","stability (HPLC) ([4]; 60° C./5% RH, 0 week) [%]","stability (HPLC) ([4]; 60° C./5% RH, 2 weeks) [%]","stability (HPLC) ([4]; 60° C./5% RH, 4 weeks) [%]","stability (HPLC) ([4]; 60° C./5% RH, 8 weeks) [%]","change of the crystal form by XRD analysis ([2]; 40±2° C., 75±5% RH or 60±2° C., 5±5% RH, up to 8 weeks)",moisture desorption on decreasing the humidity ([1]; after adsorption up to 95% RH) [%],time to conversion into the crystal form I [5],SMILES
converted into the crystal form I,≥ 4.0,3.7,≤ 8,converted into the crystal form I,0.34,0.44,98.4,98.4,98.3,98.2,98.4,98.1,97.8,97.5,–,–,–,N[C@@H](CC(=O)N1CCc2c(nc(C(F)(F)F)nc2C(F)(F)F)C1)CN1CC(F)(F)CCC1=O.N[C@@H](CC(=O)N1CCc2c(nc(C(F)(F)F)nc2C(F)(F)F)C1)CN1CC(F)(F)CCC1=O.O.O=C(O)C(O)C(O)C(=O)O.O=C(O)C(O)C(O)C(=O)O [crystal form II]
not changed,≤ 0.8,–,–,–,0.45,0.54,99.4,99.3,99.2,99.2,99.4,98.8,98.6,98.4,did not show any change,–,–,"N[C@@H](CC(=O)N1CCc2c(nc(C(F)(F)F)nc2C(F)(F)F)C1)CN1CC(F)(F)CCC1=O [crystal form I, 1-{(2S)-2-amino-4-[2,4-bis(trifluoromethyl)-5,8-dihydropyrido[3,4-d]pyrimidin-7(6H)-yl]-4-oxo-butyl}-5,5-difluoropiperidin-2-one tartrate]"
–,≥ 3.5,–,–,–,–,–,–,–,–,–,–,–,–,–,–,≤ 0.6,within about one hour,N[C@@H](CC(=O)N1CCc2c(nc(C(F)(F)F)nc2C(F)(F)F)C1)CN1CC(F)(F)CCC1=O.O=C(O)C(O)C(O)C(=O)O [crystal form III]
